According to patent publication US12091425B2 (AMGEN INC., priority 2016, dated 2024):

How the values were obtained:
[1] = biological target: T1, Mcl-1/Bim interaction, recombinant human Mcl-1 (171-327) (Homo sapiens, UniProt Q07820); assay: Cell free Mcl-1: Bim Affinity Assay (Mcl-1 HTRF); format: binding; details: TR-FRET, 0.1 nM Mcl-1 (171-327), 0.05 nM biotin-Bim (51-76)
T1 construct: made in house
Procedure, shortened: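 Read-out is time-resolved FRET after overnight incubation, using a biotin-labelled peptide from human Bim (51-76) as the binding partner; IC50 was derived from competition curves.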

[2] = tested on: OPM-2 human multiple myeloma cell line; assay: Cell Viability Assay (OPM-2 10 FBS); format: cell-based; details: Homo sapiens, OPM-2 cells, 16 h, CellTiter-Glo
Procedure, shortened: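 Plated at 3000 cells/well in 10% FBS complete medium, the cells received a serial compound dilution series and incubated 16 h at 37 °C with 5% CO2. CellTiter-Glo was then added; IC50 values were fitted with a logistic 4-parameter model.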

T1 sequence (Q07820 171-327): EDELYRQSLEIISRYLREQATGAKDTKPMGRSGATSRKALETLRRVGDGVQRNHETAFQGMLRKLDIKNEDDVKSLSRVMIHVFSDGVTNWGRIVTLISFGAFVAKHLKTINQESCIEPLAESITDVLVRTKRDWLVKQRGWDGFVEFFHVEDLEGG

| SMILES | IC50 [1] | IC50 ([2]; OPM-2, 16 h) | IC50 [2] |
| --- | --- | --- | --- |
| C[C@@H]1[C@@H](C)C/C=C/[C@H](OCCBr)[C@@H]2CC[C@H]2CN2C[C@@]3(CCCc4cc(Cl)ccc43)COc3ccc(cc32)C(=O)NS1(=O)=O [Example 14, (1S,3′R,6′R,7′S,8′E,11′S,12′R)-7′-(2-bromoethoxy)-6-chloro-11′,12′-dimethyl-3,4-dihydro-2H,15′H-spiro[naphthalene-1,22′-[20]oxa[13]thia[1,14]diazatetracyclo[14.7.2.0^3,6.0^19,24]pentacosa[8,16,18,24]tetraen]-15′-one 13′,13′-dioxide] | 3.92 nM | 1100 nM |  |
| C[C@@H]1[C@@H](C)C/C=C/[C@H](OCCS(N)(=O)=O)[C@@H]2CC[C@H]2CN2C[C@@]3(CCCc4cc(Cl)ccc43)COc3ccc(cc32)C(=O)NS1(=O)=O [Example 15, 2-(((1S,3′R,6′R,7′S,8′E,11′S,12′R)-6-chloro-11′,12′-dimethyl-13′,13′-dioxido-15′-oxo-3,4-dihydro-2H-spiro[naphthalene-1,22′-[20]oxa[13]thia[1,14]diazatetracyclo[14.7.2.0^3,6.0^19,24]pentacosa[8,16,18,24]tetraen]-7′-yl)oxy)ethanesulfonamide] | 0.393 nM | 870 nM |  |
| C[C@@H]1[C@@H](C)/C=C/C[C@H](OCCN2CCOCC2)[C@@H]2CC[C@H]2CN2C[C@@]3(CCCc4cc(Cl)ccc43)COc3ccc(cc32)C(=O)NS1(=O)=O [Example 16, (1S,3′R,6′R,7′S,9′E,11′S,12′R)-6-chloro-11′,12′-dimethyl-7′-(2-(4-morpholinyl)ethoxy)-3,4-dihydro-2H,15′H-spiro[naphthalene-1,22′-[20]oxa[13]thia[1,14]diazatetracyclo[14.7.2.0^3,6.0^19,24]pentacosa [9,16,18,24]tetraen]-15′-one 13′,13′-dioxide] | 2.21 nM |  | 3580 nM |
| O=C1NS(=O)(=O)NCC/C=C/[C@H](O)[C@@H]2CC[C@H]2CN2C[C@@]3(CCCc4cc(Cl)ccc43)COc3ccc1cc32 [Example 19, (1S,3′R,6′R,7′S,8′E)-6-chloro-7′-hydroxy-3,4-dihydro-2H,15′H-spiro[naphthalene-1,22′-[20]oxa[13]thia[1,12,14]triazatetracyclo[14.7.2.0^3,6.0^19,24]pentacosa[8,16,18,24]tetraen]-15′-one 13,13′ dioxide] | 0.494 nM | 1220 nM |  |
| O=C1NS(=O)(=O)N(CC2CC2)CC/C=C/[C@H](O)[C@@H]2CC[C@H]2CN2C[C@@]3(CCCc4cc(Cl)ccc43)COc3ccc1cc32 [Example 20, (1S,3′R,6′R,7′S,8′E)-6-chloro-12′-(cyclopropylmethyl)-7′-hydroxy-3,4-dihydro-2H,15′H-spiro[naphthalene-1,22′-[20]oxa[13]thia[1,12,14]triazatetracyclo[14.7.2.0^3,6.0^19,24]pentacosa[8,16,18,24]tetraen]-15′-one 13,13′-dioxide] | 0.85 nM | 818 nM |  |
| O=C1NS(=O)(=O)N(CC2CCCO2)CCC=CC(O)C2CCC2CN2CC3(CCCc4cc(Cl)ccc43)COc3ccc1cc32 (stereo not shown) [Example 21] | 0.806 nM | 1080 nM |  |
| COCCOCCN1CC/C=C/[C@H](O)[C@@H]2CC[C@H]2CN2C[C@@]3(CCCc4cc(Cl)ccc43)COc3ccc(cc32)C(=O)NS1(=O)=O [Example 22, (1S,3′R,6′R,7′S,8′E)-6-chloro-7′-hydroxy-12′-(2-(2-methoxyethoxy)ethyl)-3,4-dihydro-2H,15′H-spiro[naphthalene-1,22′-[20]oxa[13]thia[1,12,14]triazatetracyclo[14.7.2.0^3,6.0^19,24]pentacosa[8,16,18,24]tetraen]-15′-one 13,13′-dioxide] | 0.37 nM | 276 nM |  |
| CNC(=O)CN1CC/C=C/[C@H](O)[C@@H]2CC[C@H]2CN2C[C@@]3(CCCc4cc(Cl)ccc43)COc3ccc(cc32)C(=O)NS1(=O)=O [Example 23, 2-((1S,3′R,6′R,7′S,8′E)-6-chloro-7′-hydroxy-13′,13′-dioxido-15′-oxo-3,4-dihydro-2H,12′H-spiro[naphthalene-1,22′-[20]oxa[13]thia[1,12,14]triazatetracyclo[14.7.2.0^3,6.0^19,24]pentacosa[8,16,18,24]tetraen]-12′-yl)-N-methylacetamide] | 0.314 nM | 3210 nM |  |
| CN(C)C(=O)CN1CC/C=C/[C@H](O)[C@@H]2CC[C@H]2CN2C[C@@]3(CCCc4cc(Cl)ccc43)COc3ccc(cc32)C(=O)NS1(=O)=O [Example 24, 2-((1S,3′R,6′R,7′S,8′E)-6-chloro-7′-hydroxy-13′,13′-dioxido-15′-oxo-3,4-dihydro-2H,12′H-spiro[naphthalene-1,22′-[20]oxa[13]thia[1,12,14]triazatetracyclo[14.7.2.0^3,6.0^19,24]pentacosa[8,16,18,24]tetraen]-12′-yl)-N,N-dimethylacetamide] | 0.465 nM | 683 nM |  |
| COCCOCCN1[C@@H](C)C/C=C/[C@H](O)[C@@H]2CC[C@H]2CN2C[C@@]3(CCCc4cc(Cl)ccc43)COc3ccc(cc32)C(=O)NS1(=O)=O [Example 25, (1S,3′R,6′R,7′S,8′E,11′S)-6-chloro-7′-hydroxy-12′-(2-(2-methoxyethoxy)ethyl)-11′-methyl-3,4-dihydro-2H,15′H-spiro[naphthalene-1,22′-[20]oxa[13]thia[1,12,14]triazatetracyclo[14.7.2.0^3,6.0^19,24]pentacosa[8,16,18,24]tetraen]-15′-one 13,13′-dioxide] | 0.246 nM | 166 nM |  |
| COCCN1[C@@H](C)C/C=C/[C@H](O)[C@@H]2CC[C@H]2CN2C[C@@]3(CCCc4cc(Cl)ccc43)COc3ccc(cc32)C(=O)NS1(=O)=O [Example 26, (1S,3′R,6′R,7′S,8′E,11′S)-6-chloro-7′-hydroxy-12′-(2-methoxyethyl)-11′-methyl-3,4-dihydro-2H,15′H-spiro[naphthalene-1,22′-[20]oxa[13]thia[1,12,14]triazatetracyclo[14.7.2.0^3,6.0^19,24]pentacosa[8,16,18,24]tetraen]-15′-one 13,13′-dioxide] | 0.205 nM | 312 nM |  |
| COCCN1[C@@H](C)C/C=C/[C@H](OC)[C@@H]2CC[C@H]2CN2C[C@@]3(CCCc4cc(Cl)ccc43)COc3ccc(cc32)C(=O)NS1(=O)=O [Example 27, (1S,3′R,6′R,7′S,8′E,11′S)-6-chloro-7′-methoxy-12′-(2-methoxyethyl)-11′-methyl-3,4-dihydro-2H,15′H-spiro[naphthalene-1,22′-[20]oxa[13]thia[1,12,14]triazatetracyclo[14.7.2.0^3,6.0^19,24]pentacosa[8,16,18,24]tetraen]-15′-one 13,13′-dioxide] | 0.422 nM | 970 nM |  |
| C[C@H]1C/C=C/[C@H](O)[C@@H]2CC[C@H]2CN2C[C@@]3(CCCc4cc(Cl)ccc43)COc3ccc(cc32)C(=O)NS(=O)(=O)N1CC1CC1 [Example 28, (1S,3′R,6′R,7′S,8′E,11′S)-6-chloro-12′-(cyclopropylmethyl)-7′-hydroxy-11′-methyl-3,4-dihydro-2H,15′H-spiro[naphthalene-1,22′-[20]oxa[13]thia[1,12,14]triazatetracyclo[14.7.2.0^3,6.0^19,24]pentacosa[8,16,18,24]tetraen]-15′-one 13,13′-dioxide] | 0.8 nM | 1700 nM |  |
| COCCN1CC/C=C/[C@H](O)[C@@H]2CC[C@H]2CN2C[C@@]3(CCCc4cc(Cl)ccc43)COc3ccc(cc32)C(=O)NS1(=O)=O [Example 31, (1S,3′R,6′R,7′S,8′E)-6-chloro-7′-hydroxy-12′-(2-methoxyethyl)-3,4-dihydro-2H,15′H-spiro[naphthalene-1,22′-[20]oxa[13]thia[1,12,14]triazatetracyclo[14.7.2.0^3,6.0^19,24]pentacosa[8,16,18,24]tetraen]-15′-one 13′,13′-dioxide] | 0.492 nM | 621 nM |  |
| COC(=O)CN1CC/C=C/[C@H](O)[C@@H]2CC[C@H]2CN2C[C@@]3(CCCc4cc(Cl)ccc43)COc3ccc(cc32)C(=O)NS1(=O)=O [Example 32, methyl((1S,3′R,6′R,7′S,8′E)-6-chloro-7′-hydroxy-13′,13′-dioxido-15′-oxo-3,4-dihydro-2H,12′H-spiro[naphthalene-1,22′-[20]oxa[13]thia[1,12,14]triazatetracyclo[14.7.2.0^3,6.0^19,24]pentacosa[8,16,18,24]tetraen]-12′-yl)acetate] | 0.623 nM | 546 nM |  |
| O=C(O)CCN1CC/C=C/[C@H](O)[C@@H]2CC[C@H]2CN2C[C@@]3(CCCc4cc(Cl)ccc43)COc3ccc(cc32)C(=O)NS1(=O)=O [Example 33, 3-((1S,3′R,6′R,7′S,8′E)-6-chloro-7′-hydroxy-13′,13′-dioxido-15′-oxo-3,4-dihydro-2H,12′H-spiro[naphthalene-1,22′-[20]oxa[13]thia[1,12,14]triazatetracyclo[14.7.2.0^3,6.0^19,24]pentacosa[8,16,18,24]tetraen]-12′-yl)propanoic Acid] | 0.168 nM | 8160 nM |  |
| CS(=O)(=O)CCN1CC/C=C/[C@H](O)[C@@H]2CC[C@H]2CN2C[C@@]3(CCCc4cc(Cl)ccc43)COc3ccc(cc32)C(=O)NS1(=O)=O [Example 34, (1S,3′R,6′R,7′S,8′E)-6-chloro-7′-hydroxy-12′-(2-(methylsulfonyl)ethyl)-3,4-dihydro-2H,15′H-spiro[naphthalene-1,22′-[20]oxa[13]thia[1,12,14]triazatetracyclo[14.7.2.0^3,6.0^19,24]pentacosa[8,16,18,24]tetraen]-15′-one 13′,13′-dioxide] | 0.62 nM | 3600 nM |  |
